These results are taken from EP4786466A1, “QUINAZOLINE DERIVATIVE, SALT THEREOF, AND PHARMACEUTICAL COMPOSITION COMPRISING SAME AS ACTIVE INGREDIENT” (Korea Research Institute of Chemical Technology, priority 2023, dated 2025).

The target in series [1] is T1, Recombinant GST-TAG-MASTL (Homo sapiens, UniProt Q96GX5).
T1 construct: GST; purchased Thermo Fisher Scientific
T1 sequence (Q96GX5 1-879): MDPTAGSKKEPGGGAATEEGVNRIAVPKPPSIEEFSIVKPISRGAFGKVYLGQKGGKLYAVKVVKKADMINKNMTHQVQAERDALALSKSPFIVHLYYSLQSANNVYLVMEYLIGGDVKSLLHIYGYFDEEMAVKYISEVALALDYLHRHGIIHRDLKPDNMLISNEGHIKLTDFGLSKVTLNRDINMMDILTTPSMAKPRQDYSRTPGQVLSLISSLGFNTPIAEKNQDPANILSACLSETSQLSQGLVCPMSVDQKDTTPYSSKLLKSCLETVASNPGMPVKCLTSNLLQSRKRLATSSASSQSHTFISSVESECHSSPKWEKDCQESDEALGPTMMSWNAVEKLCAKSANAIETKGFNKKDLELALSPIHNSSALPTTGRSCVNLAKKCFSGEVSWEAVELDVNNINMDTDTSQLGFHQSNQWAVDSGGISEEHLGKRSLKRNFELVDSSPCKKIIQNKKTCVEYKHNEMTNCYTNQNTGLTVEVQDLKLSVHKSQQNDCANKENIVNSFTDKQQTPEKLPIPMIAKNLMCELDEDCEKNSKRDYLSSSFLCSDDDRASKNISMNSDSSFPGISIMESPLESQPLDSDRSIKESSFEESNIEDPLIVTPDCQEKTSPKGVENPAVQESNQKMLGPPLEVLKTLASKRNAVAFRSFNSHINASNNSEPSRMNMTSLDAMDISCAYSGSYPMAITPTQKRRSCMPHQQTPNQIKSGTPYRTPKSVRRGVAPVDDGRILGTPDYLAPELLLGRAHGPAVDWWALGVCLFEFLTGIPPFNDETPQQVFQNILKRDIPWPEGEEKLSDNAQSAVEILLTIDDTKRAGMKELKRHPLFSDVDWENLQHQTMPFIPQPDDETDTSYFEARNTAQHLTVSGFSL
The experiment in a line: HTRF-based kinase assay (HTRF KinEASE assay kit). It counts as biochemical. The settings on record: for activity at 1 µM: read-out: MASTL activity (%) HTRF (1 µM). An excerpt: Recombinant GST-TAG-MASTL (Thermo Fisher Scientific, MA, USA) was used for HTRF-based kinase assays. The HTRF KinEASE assay kit (CisBio, MA, USA) was used according to the manufacturer's instructions.

Another series deals with pENSA. Briefly: pENSA level by immunofluorescence (described method: in vitro kinase analysis with GST-tag-MASTL and His-tag-ENSA). The format is cell-based. The settings on record: for pENSA (%) Immunofluor ecense (1 µM): compound 1 µM. An outline of the steps:
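In vitro kinase reaction using recombinant GST-tagged MASTL with His-tagged ENSA as substrate; phosphorylated ENSA (pENSA) serves as read-out of MASTL activity. Cell lines named: MCF7 breast cancer and MCF10A.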

The test system of series [2] is MCF7 breast cancer cell lines. Briefly: Cell viability analysis, WST-8 assay, MCF7. The settings on record: for Cell viability (%) WST-8, MCF7 (1 µM): compound 1 µM, 72 hours; for viability at 1.1 µM: read-out: Cell viability (%) WST-8, MCF7, footnote d: concentration 1.1 µM, 72 hours. A general note: Formazan colour is commonly taken as a measure of viable cells.
Procedure: (§1) MCF7 breast cancer cell lines and MCF10A normal breast cancer cell lines were treated with serial dilutions of the compounds of the present invention ranging from 1 µM to 15.63 nM for 72 hours. Cell viability was measured by the WST-8 assay (Cyto XTM cell viability assay kit; LPS solution, Daejeon, Korea) according to the manufacturer's instructions.
Series [3] concerns MCF10A normal breast cancer cell lines. Briefly: Cell viability analysis, WST-8 assay, MCF10A. To be noted: compound 1 µM, 72 hours.
Procedure: as §1
In the next series the target is T2, MASTL (Homo sapiens, UniProt Q96GX5).
T2 sequence (Q96GX5 1-879): T1 sequence (Q96GX5 1-879)
To be noted: reported MASTL inhibitors, background art; cited from earlier work.

The nature of series [4]: Cell viability analysis, WST-8 assay, MCF10A. The settings on record: human, mcf10a cells.
Procedure: as §1
The subject of series [5] is MCF10A normal breast cell lines. The experiment in a line: Cell viability analysis, WST-8 assay, MCF10A.
Procedure: as §1
A further series can be described thus: in vitro. To be noted: human, mcf10a cells.
Where [6] appears, read: HTRF, read-out: IC50(nM) MASTL activity.
[7] abbreviates: Homo sapiens, MCF7, 72 h, read-out: IC50(nM) Cell viability (MCF7).
[8] abbreviates: Homo sapiens, MCF-10A, 72 h, read-out: IC50(nM) Cell viability (MCF10A).
[9] abbreviates: Homo sapiens, MCF7, 72 h, read-out: IC50 Cell viability (MCF7).
[10] abbreviates: Homo sapiens, MCF-10A, 72 h, read-out: IC50 Cell viability (MCF10A).
The mark [11] stands for this setting: Homo sapiens, MCF7, 72 h, read-out: Cell viability (%) WST-8, MCF7 (1 µM), compound 1 µM, 72 hours.
Where [12] appears, read: read-out: IC50(nM) Cell viability (MCF7), MCF7, WST-8, 72 hours.
The mark [13] stands for this setting: read-out: IC50(nM) Cell viability (MCF10A), MCF10A, WST-8, 72 hours.

Where two headings read alike, the source gives them in different places.

`COc1ccc(CNc2nc(Nc3cc(C4CC4)[nH]n3)c3ccccc3n2)cc1` [4ad, M^4-(5-cyclopropyl-1G-pyrazol-3-yl)-M^2-(4-methoxybenzyl)quinazoline-2,4-diamine]: the “MASTL activity (%) HTRF (1 µM)” value in series [1] (compound 1 µM) is given as 65.7%. Moreover, the “pENSA (%) Immunofluor ecense (1 µM)” value in the series on pENSA is reported as 143%. Further, the “Cell viability (%) WST-8, MCF7 (1 µM)” value in series [2] is 96.4%. Moreover, the “Cell viability (%) WST-8, MCF10A (1 µM)” value in series [3] was determined as 96.0%.

A word on the IC50: it is the concentration that inhibits the measured activity by half. Turning to `Clc1ccc(Nc2cccc(-c3cn[nH]c3)c2)cc1` [GKI-1], the half-inhibitory concentration (IC50) at MASTL was 4900 nM.

`O=C(Nc1nc2ccccc2[nH]1)c1cccc(-n2cccc2)c1` [MKI-1]: the half-maximal inhibitory concentration (IC50) on MASTL was 9900 nM.

For `N#CCc1ccc(Nc2nc(Nc3cc(C4CC4)[nH]n3)c3ccccc3n2)cc1` [compound 3a, 2-(4-((4-((5-cyclopropyl-1G-pyrazol-3-yl)amino)quinazolin-2-yl)amino)phenyl)acetonitrile], the IC50 in series [1] (setting [6]) was determined as 178 nM; in the series with pENSA (read-out: IC50(nM) pENSA) it was 100 nM; in series [2] (setting [7]) it was 207 nM; in series [5] (setting [8]), 29 nM. In addition, the activity at 1 µM in series [1] (compound 1 µM) was 20.8%. Besides, in the series with pENSA, the “pENSA (%) Immunofluor ecense (1 µM)” value turned out to be 5.1%. Besides, the viability at 1 µM stood at 0.05% in series [2] (Homo sapiens, MCF7, 72 h, read-out: Cell viability (%) WST-8, MCF7 (1 µM)) and 1.6% in series [4].

Take `O=S(=O)(c1ccc(F)cc1)N1CC2CC1CN2c1nc(Nc2cc(C3CC3)[nH]n2)c2ccccc2n1` (centres unmarked) [compound 15n, M-(5-cyclopropyl-1G-pyrazol-3-yl)-2-(5-((4-fluorophenyl)sulfonyl)-2,5-diazabicyclo[2.2.1]heptan-2-yl)quinazolin-4-amine]: the figures for the IC50 in series [1] (setting [6]), in series [2] (setting [9]) and in series [5] (setting [10]) were 327 nM, 3500 nM and 1300 nM, respectively. In series [1] (compound 1 µM), the activity at 1 µM was 32.4%. The “pENSA (%) Immunofluor ecense (1 µM)” value in the series on pENSA was determined as 77.5%. Moreover, the viability at 1.1 µM in “in vitro” was determined as 63.9%; in series [2] (Homo sapiens, MCF7, 72 h), 108%.

As to `O=S(=O)(c1ccc(F)cc1F)N1CC2CC1CN2c1nc(Nc2cc(C3CC3)[nH]n2)c2ccccc2n1` (centres unmarked) [compound 15o, M-(5-cyclopropyl-1G-pyrazol-3-yl)-2-(5-((2,4-difluorophenyl)sulfonyl)-2,5-diazabicyclo[2.2.1]heptan-2-yl)quinazolin-4-amine], the IC50 stood at 170 nM in series [1] (setting [6]), 3700 nM in series [2] (setting [9]) and 2400 nM in series [5] (setting [10]). The activity at 1 µM in series [1] (compound 1 µM) worked out at 20.3%. For the same compound, the “pENSA (%) Immunofluor ecense (1 µM)” value with pENSA was found to be 90.3%. Moreover, the viability at 1.1 µM in “in vitro” worked out at 92.6%; in series [2] (Homo sapiens, MCF7, 72 h) it was 119%.

As for `CC(C)(C)OC(=O)N1CC2CCC1CN2c1nc(Nc2cc(C3CC3)[nH]n2)c2ccccc2n1` (centres unmarked) [compound 19, sdqs,butyl 5-(4-((5-cyclopropyl-1G-pyrazol-3-yl)amino)quinazolin-2-yl)-2,5-diazabicyclo[2.2.2]octane-2-carboxylate], the concentration for half-maximal inhibition (IC50) was determined as 569 nM in series [1] (setting [6]), 1100 nM in series [2] (setting [9]) and 810 nM in series [5] (setting [8]). The activity at 1 µM in series [1] (compound 1 µM) was determined as 39.9%. Besides, in the series on pENSA, the “pENSA (%) Immunofluor ecense (1 µM)” value came out at 84.7%. The viability at 1 µM in the series “in vitro” turned out to be 71.3%; in series [2] (setting [11]), 41.2%.

For `c1ccc2c(Nc3cc(C4CC4)[nH]n3)nc(N3CC4CCC3CN4)nc2c1` (centres unmarked) [compound 20, 2-(2,5-diazabicyclo[2.2.2]octan-2-yl)-M-(5-cyclopropyl-1G-pyrazol-3-yl)quinazolin-4-amine trifluoroacetic acid], the half-inhibitory concentration (IC50) amounted to 194 nM in series [1], 66.5 nM in the series on pENSA (read-out: IC50(nM) pENSA), 150 nM in series [2] (setting [7]) and 131 nM in series [5] (setting [8]). The activity at 1 µM in series [1] stood at 36.5%. Further, the “pENSA (%) Immunofluor ecense (1 µM)” value in the series with pENSA was 30.9%. In addition, the viability at 1 µM was found to be 3.9% in the series “in vitro” and 5.5% in series [2] (setting [11]).

Regarding `CC(C)S(=O)(=O)N1CC2CCC1CN2c1nc(Nc2cc(C3CC3)[nH]n2)c2ccccc2n1` (centres unmarked) [compound 24a, M (5-cyclopropyl-1G-pyrazol-3-yl)-2-(5-(isopropylsulfonyl)-2,5-diazabicyclo[2.2.2]octan-2-yl)quinazolin-4-amine], the IC50 in series [1] (setting [6]) amounted to 180 nM; on pENSA (read-out: IC50(nM) pENSA) it was 263 nM; in series [2] (setting [12]), 954 nM; in series [5] (setting [13]) it was 420 nM. Also, the “MASTL activity (%) HTRF (1 µM)” value in series [1] (compound 1 µM) is reported as 29.9%. Further, the “pENSA (%) Immunofluor ecense (1 µM)” value in the series with pENSA stood at 14%. Further, the “Cell viability (%) WST-8, MCF7 (1 µM)” value in series [2] is 4.8%. In addition, the “Cell viability (%) WST-8, MCF10A (1 µM)” value in series [3] is given as 15.7%.

Take `O=S(=O)(C1CCCCC1)N1CC2CCC1CN2c1nc(Nc2cc(C3CC3)[nH]n2)c2ccccc2n1` (centres unmarked) [compound 24b, 2-(5-(cyclohexylsulfonyl)-2,5-diazabicyclo[2.2.2]octan-2-yl)-M-(5-cyclopropyl-1G-pyrazol-3-yl)quinazolin-4-amine]: the concentration for half-maximal inhibition (IC50) was 198 nM in series [1] (setting [6]), 770 nM at pENSA (read-out: IC50(nM) pENSA) and 684 nM in series [5] (setting [13]). Besides, the “MASTL activity (%) HTRF (1 µM)” value in series [1] (compound 1 µM) is 24.8%. The “pENSA (%) Immunofluor ecense (1 µM)” value in the series on pENSA is 36%. Also, the “Cell viability (%) WST-8, MCF7 (1 µM)” value in series [2] is 90.7%. The “Cell viability (%) WST-8, MCF10A (1 µM)” value in series [3] is 26.5%.

For `O=S(=O)(c1cccs1)N1CC2CCC1CN2c1nc(Nc2cc(C3CC3)[nH]n2)c2ccccc2n1` (centres unmarked) [compound 24d, M-(5-cyclopropyl-1G-pyrazol-3-yl)-2-(5-(thiophen-2-ylsulfonyl)-2,5-diazabicyclo[2.2.2]octan-2-yl)quinazolin-4-amine], the concentration for half-maximal inhibition (IC50) in series [1] (setting [6]) is 597 nM; at pENSA (unit µM, read-out: IC50 pENSA), 1900 nM; in series [2] (setting [12]) it was 626 nM; in series [5] (setting [13]) it was 210 nM. In addition, the “MASTL activity (%) HTRF (1 µM)” value in series [1] (compound 1 µM) is given as 32.9%. In addition, in the series on pENSA, the “pENSA (%) Immunofluor ecense (1 µM)” value is 2.6%. In addition, in series [2], the “Cell viability (%) WST-8, MCF7 (1 µM)” value worked out at 6.4%. Further, in series [3], the “Cell viability (%) WST-8, MCF10A (1 µM)” value was determined as 4.9%.

With `N#Cc1ccccc1S(=O)(=O)N1CC2CCC1CN2c1nc(Nc2cc(C3CC3)[nH]n2)c2ccccc2n1` (centres unmarked) [compound 24e, 2-((5-(4-((5-cyclopropyl-1G-pyrazol-3-yl)amino)quinazolin-2-yl)-2,5-diazabicyclo[2.2.2]octan-2-yl)sulfonyl)benzonitrile], the IC50 turned out to be 213 nM in series [1] (setting [6]); 1900 nM at pENSA (unit µM, read-out: IC50 pENSA); 543 nM in series [2] (setting [12]); 184 nM in series [5] (setting [13]). Further, in series [1] (compound 1 µM), the “MASTL activity (%) HTRF (1 µM)” value is 10.8%. Also, the “pENSA (%) Immunofluor ecense (1 µM)” value in the series with pENSA came out at 4.1%. Further, the “Cell viability (%) WST-8, MCF7 (1 µM)” value in series [2] is given as 2.2%. Besides, the “Cell viability (%) WST-8, MCF10A (1 µM)” value in series [3] turned out to be 2.8%.
